Laboratory results reported in patent US20160137714A1 (Thrasos Innovation, Inc., priority 2014, published 2016).
Positions of bridges follow the written chain, without caps; N, C: chain ends. Non-standard residues stand in square brackets, D forms with d. Residues, ends and D or L forms follow the SMILES beside them. NMeR = CN[C@@H](CCCNC(=N)N)C(=O)O

Assay: Ex-vivo plasma stability
Type: in vitro ADME, mouse or rat
Conditions: for remaining at 1 h / remaining at 2 h: fresh plasma 37° C., 1 μM; for remaining at 1 h: 60 min, read-out: Percent remaining 60 min; for remaining at 2 h: 120 min, read-out: Percent remaining 120 min; for stability toward plasma proteolytic cleavage: versus THR-123, rat plasma (FIGS. 3 and 4)
Procedure: Test article is added to fresh mouse or rat plasma at a final in-vial concentration of 1 μM. The peptide is incubated in a water bath at 37° C. over a time course that included the following points (in minutes): 0, 15, 30, 60, 120, 240, and 1440. After the incubation time is completed, a 50 μL aliquot of plasma is removed and proteins are precipitated using a solution containing internal standard (THR-123 at 150 ng/mL) in methanol with 0.5% acetic acid (v/v). The samples are centrifuged at 13,000 RPM for 5 minutes, and a 100 μL aliquot of supernatant is removed and transferred to a 96-well plate containing 200 μL of reconstitution solution (Water/MeOH/Acetic Acid/TFA, 60/40/0.2/0.05, v/v/v/v). A calibration curve and quality control (QC) samples are prepared in parallel in the same manner as the incubation samples. The calibration range for this assay is from 0.02 to 2.0 μM in rat or mouse plasma. The extracted calibrants, QC, and incubation samples are injected onto an AB SCIEX API 2000 LC-MS/MS system. Chromatographic separation is performed using a reversed-phase C18 HPLC column (Ace-3 C18, 30×2.1 mm, 3 μm). The solvent system consists of Milli-Q water, acetonitrile and formic acid. Analyte and internal standard are detected using the multiple reaction monitoring (MRM) scan mode. Calibration curves are generated by using a weighted (1/concentration) quadratic regression analysis of the peak area ratios (analyte/internal standard) versus the nominal concentration of the calibration standards. The concentration of the analyte in the incubation samples is determined by back-calculating the peak area ratios obtained using the quadratic regression.

remaining at 1 h [%] | remaining at 2 h [%] | stability toward plasma proteolytic cleavage | SMILES
4 | 2.5 |  | CC(C)C[C@@H]1NC(=O)[C@H](C(C)C)NC(=O)[C@H](CO)NC(=O)[C@H](CO)NC(=O)[C@H](CO)NC(=O)[C@H](CC(N)=O)NC(=O)[C@H](CC(=O)O)NC(=O)[C@H](Cc2ccc(O)cc2)NC(=O)[C@H](Cc2ccc(O)cc2)NC(=O)[C@@H](N)CSSC[C@@H](C(=O)N[C@@H](CCCCN)C(=O)N[C@@H](CCCNC(=N)N)C(=O)N[C@@H](Cc2ccc(O)cc2)C(=O)N[C@@H](CCCNC(=N)N)C(=O)N[C@@H](CO)C(=O)O)NC1=O [GPR-259, Cys-Tyr-Tyr-Asp-Asn-Ser-Ser-Ser-Val-Leu-Cys-Lys-Arg-Tyr-Arg-Ser] (H-CYYDNSSSVLCKRYRS-OH; disulfide 1-11)
77.6 | 64.2 | enhanced | CC(C)C[C@@H]1NC(=O)[C@H](C(C)C)NC(=O)[C@H](CC(N)=O)NC(=O)[C@H](CO)NC(=O)[C@H](CO)NC(=O)[C@H](CC(=O)O)NC(=O)[C@H](CC(=O)O)NC(=O)[C@H](Cc2ccccc2)NC(=O)[C@H](Cc2ccc(O)cc2)NC(=O)[C@@H](N)CSSC[C@@H](C(=O)N[C@@H](CCCCN)C(=O)N[C@H](CCCCN)C(=O)N[C@@H](Cc2ccc(O)cc2)C(=O)N[C@@H](CCCNC(=N)N)C(=O)N[C@@H](CO)C(=O)O)NC1=O [GPR-388, Cys-Tyr-Phe-Asp-Asp-Ser-Ser-Asn-Val-Leu-Cys-Lys-(D)lys-Tyr-Arg-Ser] (H-CYFDDSSNVLCK[dK]YRS-OH; disulfide 1-11)
92.2 | 94.7 |  | CC(C)C[C@@H]1NC(=O)[C@H](C(C)C)NC(=O)[C@H](CO)NC(=O)[C@H](CO)NC(=O)[C@H](CO)NC(=O)[C@H](CC(=O)O)NC(=O)[C@H](CC(=O)O)NC(=O)[C@H](Cc2ccc(O)cc2)NC(=O)[C@H](Cc2ccc(O)cc2)NC(=O)[C@@H](N)CSSC[C@@H](C(=O)N[C@@H](CCCCN)C(=O)N[C@@H](CCCCN)C(=O)N[C@H](Cc2ccc(O)cc2)C(=O)N[C@@H](CCCNC(=N)N)C(=O)N[C@@H](CO)C(=O)O)NC1=O [GPR-295, Cys-Tyr-Tyr-Asp-Asp-Ser-Ser-Ser-Val-Leu-Cys-Lys-Lys-D-tyr-Arg-Ser] (H-CYYDDSSSVLCKK[dY]RS-OH; disulfide 1-11)
79.2 | 68.1 |  | CC(C)C[C@@H]1NC(=O)[C@H](C(C)C)NC(=O)[C@H](CO)NC(=O)[C@H](CO)NC(=O)[C@H](CO)NC(=O)[C@H](CC(N)=O)NC(=O)[C@H](CC(=O)O)NC(=O)[C@H](Cc2ccc(O)cc2)NC(=O)[C@H](Cc2ccc(O)cc2)NC(=O)[C@@H](N)CSSC[C@@H](C(=O)N[C@@H](CCCCN)C(=O)N[C@@H](CCCNC(=N)N)C(=O)N[C@@H](Cc2ccc(O)cc2)C(=O)N(C)[C@@H](CCCNC(=N)N)C(=O)N[C@@H](CO)C(=O)O)NC1=O [GPR-398, Cys-Tyr-Tyr-Asp-Asn-Ser-Ser-Ser-Val-Leu-Cys-Lys-Arg-Tyr-(Nα-Me)Arg-Ser] (H-CYYDNSSSVLCKRY[NMeR]S-OH; disulfide 1-11)
92 | 89.3 |  | CC(C)C[C@@H]1NC(=O)[C@H](C(C)C)NC(=O)[C@H](CC(N)=O)NC(=O)[C@H](CO)NC(=O)[C@H](CO)NC(=O)[C@H](CC(=O)O)NC(=O)[C@H](CC(=O)O)NC(=O)[C@H](Cc2ccccc2)NC(=O)[C@H](Cc2ccc(O)cc2)NC(=O)[C@@H](N)CSSC[C@@H](C(=O)N[C@@H](CCCCN)C(=O)N[C@@H](CCCNC(=N)N)C(=O)N[C@H](Cc2ccc(O)cc2)C(=O)N[C@@H](CCCNC(=N)N)C(=O)N[C@@H](CO)C(=O)O)NC1=O [GPR-397, Cys-Tyr-Phe-Asp-Asp-Ser-Ser-Asn-Val-Leu-Cys-Lys-Arg-D-tyr-Arg-Ser] (H-CYFDDSSNVLCKR[dY]RS-OH; disulfide 1-11)
1.5 | 0 |  | CC(C)C[C@@H]1NC(=O)[C@H](C(C)C)NC(=O)[C@H](CO)NC(=O)[C@H](CO)NC(=O)[C@H](CO)NC(=O)[C@H](CC(=O)O)NC(=O)[C@H](CC(=O)O)NC(=O)[C@H](Cc2ccc(O)cc2)NC(=O)[C@H](Cc2ccc(O)cc2)NC(=O)[C@@H](N)CSSC[C@@H](C(=O)N[C@@H](CCCCN)C(=O)N[C@@H](CCCCN)C(=O)N[C@@H](Cc2ccc(O)cc2)C(=O)N[C@@H](CCCNC(=N)N)C(=O)N[C@@H](CO)C(=O)O)NC1=O [GPR-267, Cys-Tyr-Tyr-Asp-Asp-Ser-Ser-Ser-Val-Leu-Cys-Lys-Lys-Tyr-Arg-Ser] (H-CYYDDSSSVLCKKYRS-OH; disulfide 1-11)
89.1 | 77.8 |  | CC(C)C[C@@H]1NC(=O)[C@H](C(C)C)NC(=O)[C@H](CO)NC(=O)[C@H](CO)NC(=O)[C@H](CO)NC(=O)[C@H](CC(N)=O)NC(=O)[C@H](CC(=O)O)NC(=O)[C@H](Cc2ccc(O)cc2)NC(=O)[C@H](Cc2ccc(O)cc2)NC(=O)[C@@H](N)CSSC[C@@H](C(=O)N[C@@H](CCCCN)C(=O)N[C@@H](CCCNC(=N)N)C(=O)N[C@H](Cc2ccc(O)cc2)C(=O)N[C@@H](CCCNC(=N)N)C(=O)N[C@@H](CO)C(=O)O)NC1=O [GPR-279, Cys-Tyr-Tyr-Asp-Asn-Ser-Ser-Ser-Val-Leu-Cys-Lys-Arg-D-tyr-Arg-Ser] (H-CYYDNSSSVLCKR[dY]RS-OH; disulfide 1-11)
58.5 | 46.1 | enhanced | CC(C)C[C@@H]1NC(=O)[C@H](C(C)C)NC(=O)[C@H](CC(N)=O)NC(=O)[C@H](CO)NC(=O)[C@H](CO)NC(=O)[C@H](CC(=O)O)NC(=O)[C@H](CC(=O)O)NC(=O)[C@H](Cc2ccccc2)NC(=O)[C@H](Cc2ccc(O)cc2)NC(=O)[C@@H](N)CSSC[C@@H](C(=O)N[C@@H](CCCCN)C(=O)N[C@@H](CCCCN)C(=O)N[C@@H](Cc2ccc(O)cc2)C(=O)N[C@H](CCCNC(=N)N)C(=O)N[C@@H](CO)C(=O)O)NC1=O [GPR-389, Cys-Tyr-Phe-Asp-Asp-Ser-Ser-Asn-Val-Leu-Cys-Lys-Lys-Tyr-D-arg-Ser] (H-CYFDDSSNVLCKKY[dR]S-OH; disulfide 1-11)
9.9 | 6.8 |  | CC(C)C[C@@H]1NC(=O)[C@H](C(C)C)NC(=O)[C@H](CO)NC(=O)[C@H](CO)NC(=O)[C@H](CO)NC(=O)[C@H](CC(N)=O)NC(=O)[C@H](CC(=O)O)NC(=O)[C@H](Cc2ccc(O)cc2)NC(=O)[C@H](Cc2ccc(O)cc2)NC(=O)[C@@H](N)CSSC[C@@H](C(=O)N[C@@H](CCCCN)C(=O)N[C@@H](CCCCN)C(=O)N[C@@H](Cc2ccc(O)cc2)C(=O)N[C@@H](CCCNC(=N)N)C(=O)N[C@@H](CO)C(=O)O)NC1=O [GPR-269, Cys-Tyr-Tyr-Asp-Asn-Ser-Ser-Ser-Val-Leu-Cys-Lys-Lys-Tyr-Arg-Ser] (H-CYYDNSSSVLCKKYRS-OH; disulfide 1-11)
97.5 | 86.4 |  | CC(C)C[C@@H]1NC(=O)[C@H](C(C)C)NC(=O)[C@H](CO)NC(=O)[C@H](CO)NC(=O)[C@H](CO)NC(=O)[C@H](CC(N)=O)NC(=O)[C@H](CC(=O)O)NC(=O)[C@H](Cc2ccc(O)cc2)NC(=O)[C@H](Cc2ccc(O)cc2)NC(=O)[C@@H](N)CSSC[C@@H](C(=O)N[C@@H](CCCCN)C(=O)N[C@@H](CCCCN)C(=O)N[C@H](Cc2ccc(O)cc2)C(=O)N[C@@H](CCCNC(=N)N)C(=O)N[C@@H](CO)C(=O)O)NC1=O [GPR-296, Cys-Tyr-Tyr-Asp-Asn-Ser-Ser-Ser-Val-Leu-Cys-Lys-Lys-D-tyr-Arg-Ser] (H-CYYDNSSSVLCKK[dY]RS-OH; disulfide 1-11)
